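A five-concentration, 48-hour dose response in 96-well plates underlies each endpoint, interpolated linearly between surrounding concentrations. Here, GI50 denotes the concentration required for 50% inhibition of growth.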 Calls of active or inactive are those of the source. No stated cut-off is given here; in the data, active = GI50 up to about 1.1 µM and inactive = higher.
How the values were obtained:
Assay in all cases: NCI tumour cell line growth inhibition, 48 h
[1] = test system: 786-0
[2] = test system: ACHN
[3] = test system: CCRF-CEM
[4] = test system: EKVX
[5] = test system: HCT-15
[6] = test system: HT-29
[7] = test system: IGROV-1
[8] = test system: KM12
[9] = test system: LOX IMVI
[10] = test system: M14
[11] = test system: NCI-H23
[12] = test system: RPMI-8226
[13] = test system: SK-MEL-28
[14] = test system: SK-MEL-5
[15] = test system: SNB-75
[16] = test system: UACC-62

Structure (SMILES) | GI50 [1] | GI50 [2] | GI50 [3] | GI50 [4] | GI50 [5] [µM] | GI50 [6] | GI50 [7] | GI50 [8] | GI50 [9] | GI50 [10] | GI50 [11] | GI50 [12] | GI50 [13] | GI50 [14] | GI50 [15] | GI50 [16]
CC1=CC2CC(C)=C(CC[C@]3(C)CC[C@H]([C@@H](C)C(=O)O)OO3)C(C)(C)C2CC1 (some centres not stated) | 1.45 µM (inactive) | 1.3 µM (inactive) | 0.182 µM (active) | 1.91 µM (inactive) | 0.675 | 0.182 µM (active) | 0.212 µM (active) | 0.128 µM (active) | 0.0792 µM (active) | 1.31 µM (inactive) | 0.9 µM (active) | 0.304 µM (active) | 1.57 µM (inactive) | 1.26 µM (inactive) | 0.853 µM (active) | 1.49 µM (inactive)
CCc1ccccc1NC(=O)/C(=N/O)C(C)=O | > 100 µM (inactive) | > 100 µM (inactive) | > 100 µM (inactive) | > 100 µM (inactive) | > 100 | > 100 µM (inactive) | > 100 µM (inactive) | > 100 µM (inactive) | > 100 µM (inactive) | > 100 µM (inactive) | > 100 µM (inactive) | > 100 µM (inactive) | > 100 µM (inactive) | > 100 µM (inactive) | > 100 µM (inactive) | > 100 µM (inactive)
Nc1c2ccccc2nc2c(C(=O)Nc3ccc(S(N)(=O)=O)cc3)cccc12 | > 100 µM (inactive) | > 100 µM (inactive) | 12.5 µM (inactive) | > 100 µM (inactive) | > 100 | > 100 µM (inactive) | > 100 µM (inactive) | 32.1 µM (inactive) | 40.1 µM (inactive) | > 100 µM (inactive) | > 100 µM (inactive) | 33.1 µM (inactive) | > 100 µM (inactive) | 86.3 µM (inactive) | 61.8 µM (inactive) | 97.5 µM (inactive)
COc1cccc2nc3c(C(=O)NCCN(C)C)cccc3nc12 | 10.6 µM (inactive) | 4.3 µM (inactive) | 5.35 µM (inactive) | 12.6 µM (inactive) | 7 | 4.63 µM (inactive) | 16.1 µM (inactive) | 7.19 µM (inactive) | 4.2 µM (inactive) | 13.4 µM (inactive) | 11.8 µM (inactive) | 6.49 µM (inactive) | 13.8 µM (inactive) | 11.8 µM (inactive) | 12.4 µM (inactive) | 12.6 µM (inactive)
Cc1nc2sccn2c1C(=O)NC(=O)Nc1ccc(Cl)cc1 | 48.2 µM (inactive) | > 100 µM (inactive) | > 100 µM (inactive) | > 100 µM (inactive) | > 100 | > 100 µM (inactive) | > 100 µM (inactive) | > 100 µM (inactive) | > 100 µM (inactive) | > 100 µM (inactive) | 35.7 µM (inactive) | > 100 µM (inactive) | > 100 µM (inactive) | > 100 µM (inactive) | 24.3 µM (inactive) | > 100 µM (inactive)
CC1CCCP(=O)(c2ccccc2)CCC1 (configuration not stated) | > 100 µM (inactive) | > 100 µM (inactive) | > 100 µM (inactive) | > 100 µM (inactive) | > 100 | > 100 µM (inactive) | > 100 µM (inactive) | > 100 µM (inactive) | > 100 µM (inactive) | > 100 µM (inactive) | > 100 µM (inactive) | > 100 µM (inactive) | > 100 µM (inactive) | > 100 µM (inactive) | > 100 µM (inactive) | > 100 µM (inactive)
[N-]=[N+]=C1C(=O)C2CC3CC1CC2C3 (configuration not stated) | > 100 µM (inactive) | > 100 µM (inactive) | > 100 µM (inactive) | > 100 µM (inactive) | > 100 | > 100 µM (inactive) | > 100 µM (inactive) | > 100 µM (inactive) | > 100 µM (inactive) | > 100 µM (inactive) | > 100 µM (inactive) | > 100 µM (inactive) | > 100 µM (inactive) | > 100 µM (inactive) | > 100 µM (inactive) | > 100 µM (inactive)

Source: ChEMBL document CHEMBL1201862, “PubChem BioAssay data set” (2004)
